Experimental data as given in US11209437B2, “Fluorescent probe and preparation method and use thereof” (Fluorescence Diagnosis (shanghai) Biotech Company Ltd., priority 2016, dated 2021).

Experiments:
SNAP protein tags = target: T1, SNAP protein tags (Homo sapiens, UniProt P16455, A127T/A154D/C150Q/C62A/E30R/G131K/G132T/G153L/K125A/K32I/L33F/M134L/N157G/Q115S/Q116H/R128A/R135S/S151G/S152D/S159E); assay: Fluorescence activation of probe after incubation with corresponding protein tag (SNAP); format: biochemical; settings: probe 5 μM, protein tag 10 μM, 37° C., 1 hr
T1 sequence (P16455 1-182 E30R/K32I/L33F/C62A/Q115S/Q116H/K125A/A127T/R128A/G131K/G132T/M134L/R135S/C150Q/S151G/S152D/G153L/A154D/N157G/S159E): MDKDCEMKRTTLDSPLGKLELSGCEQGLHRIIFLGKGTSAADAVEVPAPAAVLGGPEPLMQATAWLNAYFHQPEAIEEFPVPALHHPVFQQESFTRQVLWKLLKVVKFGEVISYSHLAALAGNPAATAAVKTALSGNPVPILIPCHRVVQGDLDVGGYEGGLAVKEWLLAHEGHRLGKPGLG
In short: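 Probe (5 μM final) mixed with CLIP or SNAP protein tag (10 μM final) and incubated 1 hr at 37° C. Fluorescence intensity change measured by fluorescence spectrophotometer, with quantum yield of tag-bound probe determined.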

[1] = Viscosity responsiveness: fluorescence emission spectra of probes in glycerol and methanol; format: physicochemical; settings: for Emission wavelength: excited at maximum excitation wavelength of each probe; for Fluorescence ratio in glycerol to methanol: probe 1×10^−5 M
In short: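 Each probe, from a 1×10^−2 M DMSO stock, was diluted to a final 1×10^−5 M in glycerol and in methanol. Fluorescence emission spectra were then recorded under identical conditions at each probe's maximum excitation wavelength.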

[2] = Fluorescence of free probe prior to binding to a protein tag; format: physicochemical

Compound	Fluorescence activation multiple (SNAP protein tags)	Quantum yield of probe bound to protein tag (SNAP protein tags)	Emission wavelength [1] [nm]	Fluorescence ratio in glycerol to methanol [1]	Quantum yield of free probe [2]
COCCNC(=O)/C(C#N)=C/c1ccc(-c2ccc(N(C)CCOC(=O)NCc3ccc(COc4nc(N)nc5[nH]cnc45)cc3)cc2)s1 [probe 67]	576	0.36	620	276	<0.001
COCCNC(=O)/C(C#N)=C/c1ccc(-c2ccc(N(C)CCOC(=O)NCc3ccc(COc4cc(Cl)nc(N)n4)cc3)cc2)s1 [probe 68]	681	0.36	620	381	<0.001
CN(CCOC(=O)NCc1ccc(COc2nc(N)nc3[nH]cnc23)cc1)c1cc2cc3sc(/C=C(\C#N)C(=O)OC(C)(C)C)cc3cc2s1 [probe 70]	258	0.68	640	131	0.0026
COCCNC(=O)/C(C#N)=C/c1cc2cc3sc(N(C)CCOC(=O)NCc4ccc(COc5nc(N)nc6[nH]cnc56)cc4)cc3cc2s1 [probe 71]	239	0.67	640	121	0.0028
CN(CCOC(=O)NCc1ccc(COc2nc(N)nc3[nH]cnc23)cc1)c1cc2c(s1)-c1sc(C=C(C#N)C#N)cc1[Si]2(C)C [probe 73]	248	0.76	680	325	0.0031
CN(CCOC(=O)NCc1ccc(COc2nc(N)nc3[nH]cnc23)cc1)c1cc2c(s1)-c1sc(/C=C(/C#N)C(=O)OC(C)(C)C)cc1[Si]2(C)C [probe 74]	311	0.78	680	297	0.0025
CN(CCOC(=O)NCc1ccc(COc2nc(N)nc3[nH]cnc23)cc1)c1cc2c(s1)-c1sc(/C=C(/C#N)c3nc4ccccc4o3)cc1[Si]2(C)C [probe 75]	211	0.44	700	105	0.0021
COCCNC(=O)/C(C#N)=C/c1ccc(-c2ccc(N(C)CCOC(=O)NCc3ccc(COc4nc(N)nc5[nH]cnc45)cc3)s2)s1 [probe 78]	369	0.28	672	189	<0.001
CN(CCOC(=O)NCc1ccc(COc2nc(N)nc3[nH]cnc23)cc1)c1ccc(-c2ccc(/C=C(\C#N)c3nc4ccccc4s3)s2)s1 [probe 79]	419	0.31	681	298	<0.001
CC(C)(C)OC(=O)/C(C#N)=C/c1ccc2c(c1)SCCN2CCOC(=O)NCc1ccc(COc2nc(N)nc3[nH]cnc23)cc1 [probe 83]	209	0.18	515	103	<0.001
N#C/C(=C\c1ccc2c(c1)SCCN2CCOC(=O)NCc1ccc(COc2nc(N)nc3[nH]cnc23)cc1)c1nc2ccccc2o1 [probe 85]	391	0.15	535	187	<0.001
N#C/C(=C\c1ccc2c(c1)SCCN2CCOC(=O)NCc1ccc(COc2nc(N)nc3[nH]cnc23)cc1)c1nc2ccccc2s1 [probe 86]	413	0.17	550	214	<0.001
CC1=CC(C)(C)N(CCOC(=O)NCc2ccc(COc3nc(N)nc4[nH]cnc34)cc2)c2ccc(/C=C(\C#N)C(=O)OC(C)(C)C)cc21 [probe 87]	515	0.45	575	209	<0.001
CC1=CC(C)(C)N(CCOC(=O)NCc2ccc(COc3nc(N)nc4[nH]cnc34)cc2)c2ccc(/C=C(\C#N)c3nc4ccccc4s3)cc21 [probe 89]	421	0.32	612	129	<0.001
CN(CCOC(=O)NCc1ccc(COc2nc(N)nc3[nH]cnc23)cc1)c1cc2c(s1)-c1sc(/C=C(/C#N)C(=O)O)cc1C2(C)C [probe 98]	893	0.78	650	182	<0.001
CN(CCOC(=O)NCc1ccc(COc2nc(N)nc3[nH]cnc23)cc1)c1ccc(/C=C(\C#N)C(=O)O)cc1 [probe 101]	463	0.37	481	362	<0.001
N#C/C(=C\c1ccc2c(c1)SCCN2CCOC(=O)NCc1ccc(COc2nc(N)nc3[nH]cnc23)cc1)C(=O)O [probe 103]	651	0.27	515	321	<0.001
CC1=CC(C)(C)N(CCOC(=O)NCc2ccc(COc3nc(N)nc4[nH]cnc34)cc2)c2ccc(/C=C(\C#N)C(=O)O)cc21 [probe 105]	549	0.41	510	328	<0.001
CN(CCOC(=O)NCc1ccc(COc2nc(N)nc3[nH]cnc23)cc1)c1cc2sc(/C=C(\C#N)C(=O)O)cc2s1 [probe 107]	564	0.47	555	526	<0.001
CN(CCOC(=O)NCc1ccc(COc2nc(N)nc3[nH]cnc23)cc1)c1ccc(C#C/C=C(\C#N)C(=O)O)cc1 [probe 109]	546	0.33	566	341	<0.001
CN(CCOC(=O)NCc1ccc(COc2nc(N)nc3[nH]cnc23)cc1)c1ccc2cc(/C=C(\C#N)C(=O)O)sc2c1 [probe 111]	681	0.49	570	621	<0.001
CN(CCOC(=O)NCc1ccc(COc2nc(N)nc3[nH]cnc23)cc1)c1ccc2nc(/C=C(\C#N)C(=O)O)sc2c1 [probe 114]	328	0.27	625	230	<0.001
